Data: ChEMBL document CHEMBL3991601, “The target landscape of clinical kinase drugs” (Science, 2017)
Calls of active or inactive are those of the source.

Key:
Rab-like protein 3 = target: T1, Rab-like protein 3 (Homo sapiens, UniProt Q5HYI8)
T1 sequence (Q5HYI8 whole entry): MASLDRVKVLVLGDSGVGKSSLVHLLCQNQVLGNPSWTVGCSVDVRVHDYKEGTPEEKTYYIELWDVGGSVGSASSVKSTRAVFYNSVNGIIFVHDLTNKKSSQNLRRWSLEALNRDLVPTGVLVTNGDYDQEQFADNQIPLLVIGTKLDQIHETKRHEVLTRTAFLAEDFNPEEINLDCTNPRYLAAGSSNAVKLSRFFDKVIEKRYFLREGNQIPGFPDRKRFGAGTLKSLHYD

[1] = target: T2, ATP-dependent RNA helicase DDX42 (Homo sapiens, UniProt Q86XP3)
T2 sequence (Q86XP3 whole entry): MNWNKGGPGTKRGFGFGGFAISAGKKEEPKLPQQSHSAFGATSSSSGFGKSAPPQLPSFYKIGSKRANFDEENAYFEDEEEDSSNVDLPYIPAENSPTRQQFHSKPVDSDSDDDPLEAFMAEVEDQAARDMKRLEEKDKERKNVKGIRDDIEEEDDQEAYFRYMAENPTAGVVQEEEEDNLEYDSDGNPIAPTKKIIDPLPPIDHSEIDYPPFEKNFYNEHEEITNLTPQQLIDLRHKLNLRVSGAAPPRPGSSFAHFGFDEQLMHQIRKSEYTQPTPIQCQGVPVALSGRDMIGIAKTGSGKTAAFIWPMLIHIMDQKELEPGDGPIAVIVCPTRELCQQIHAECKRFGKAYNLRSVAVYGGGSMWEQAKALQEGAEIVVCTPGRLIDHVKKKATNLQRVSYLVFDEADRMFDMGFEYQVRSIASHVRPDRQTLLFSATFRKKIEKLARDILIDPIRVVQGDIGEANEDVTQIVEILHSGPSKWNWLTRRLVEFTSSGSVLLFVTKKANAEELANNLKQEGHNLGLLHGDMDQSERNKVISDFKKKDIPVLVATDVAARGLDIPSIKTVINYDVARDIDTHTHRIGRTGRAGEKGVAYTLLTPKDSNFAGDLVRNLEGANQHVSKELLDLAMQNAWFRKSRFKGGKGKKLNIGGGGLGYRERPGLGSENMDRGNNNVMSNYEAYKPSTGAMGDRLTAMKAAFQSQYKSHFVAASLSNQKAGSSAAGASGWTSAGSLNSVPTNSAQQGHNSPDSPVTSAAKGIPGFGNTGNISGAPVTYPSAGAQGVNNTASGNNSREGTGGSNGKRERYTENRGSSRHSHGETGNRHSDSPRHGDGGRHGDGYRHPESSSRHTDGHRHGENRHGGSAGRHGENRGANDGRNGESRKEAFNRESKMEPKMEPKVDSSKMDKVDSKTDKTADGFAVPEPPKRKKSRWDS

[2] = target: Serine/threonine-protein kinase N2 (Homo sapiens, UniProt Q16513)
[3] = target: T3, Exosome RNA helicase MTR4 (Homo sapiens, UniProt P42285)
T3 sequence (P42285 whole entry): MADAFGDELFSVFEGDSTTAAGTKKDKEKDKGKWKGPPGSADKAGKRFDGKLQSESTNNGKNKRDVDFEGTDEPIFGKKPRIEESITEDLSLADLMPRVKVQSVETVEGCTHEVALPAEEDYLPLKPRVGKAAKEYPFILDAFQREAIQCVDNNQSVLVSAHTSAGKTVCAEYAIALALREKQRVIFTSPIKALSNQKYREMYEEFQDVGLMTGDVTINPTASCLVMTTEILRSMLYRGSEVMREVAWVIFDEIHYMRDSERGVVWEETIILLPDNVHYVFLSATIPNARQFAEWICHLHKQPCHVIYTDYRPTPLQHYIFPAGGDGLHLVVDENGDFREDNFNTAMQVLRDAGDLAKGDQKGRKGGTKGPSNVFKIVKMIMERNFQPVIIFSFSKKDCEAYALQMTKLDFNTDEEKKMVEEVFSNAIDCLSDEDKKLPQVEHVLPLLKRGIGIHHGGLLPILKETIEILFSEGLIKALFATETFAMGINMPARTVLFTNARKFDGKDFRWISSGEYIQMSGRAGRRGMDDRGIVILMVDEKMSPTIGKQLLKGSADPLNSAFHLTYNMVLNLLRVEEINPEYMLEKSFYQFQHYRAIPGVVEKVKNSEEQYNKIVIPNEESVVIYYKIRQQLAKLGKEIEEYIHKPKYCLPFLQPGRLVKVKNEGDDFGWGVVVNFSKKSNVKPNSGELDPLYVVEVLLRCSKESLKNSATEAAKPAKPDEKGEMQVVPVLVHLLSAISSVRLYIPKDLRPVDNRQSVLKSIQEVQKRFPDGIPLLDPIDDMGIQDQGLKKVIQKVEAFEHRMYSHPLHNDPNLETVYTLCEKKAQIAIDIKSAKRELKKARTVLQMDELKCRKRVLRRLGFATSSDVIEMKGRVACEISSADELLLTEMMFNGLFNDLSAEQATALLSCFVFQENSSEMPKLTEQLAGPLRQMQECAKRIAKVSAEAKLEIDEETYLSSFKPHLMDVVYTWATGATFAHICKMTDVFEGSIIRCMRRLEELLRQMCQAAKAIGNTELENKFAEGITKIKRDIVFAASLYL

[4] = target: T4, Tyrosine--tRNA ligase, cytoplasmic (Homo sapiens, UniProt P54577)
T4 sequence (P54577 whole entry): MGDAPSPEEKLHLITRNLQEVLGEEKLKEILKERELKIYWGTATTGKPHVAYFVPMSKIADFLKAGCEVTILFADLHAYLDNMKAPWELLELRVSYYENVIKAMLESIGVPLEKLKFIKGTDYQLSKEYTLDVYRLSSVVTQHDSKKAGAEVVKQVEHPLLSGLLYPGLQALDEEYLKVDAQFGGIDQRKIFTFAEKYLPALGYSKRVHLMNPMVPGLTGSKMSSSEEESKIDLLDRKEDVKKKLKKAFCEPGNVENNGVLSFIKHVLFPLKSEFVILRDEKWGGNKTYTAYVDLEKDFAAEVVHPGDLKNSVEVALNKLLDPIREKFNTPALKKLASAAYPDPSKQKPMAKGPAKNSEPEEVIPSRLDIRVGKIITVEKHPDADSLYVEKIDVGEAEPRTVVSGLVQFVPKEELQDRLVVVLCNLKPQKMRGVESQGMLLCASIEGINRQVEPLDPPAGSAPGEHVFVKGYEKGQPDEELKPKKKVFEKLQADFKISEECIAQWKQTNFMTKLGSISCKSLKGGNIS
Further: in the data inactive means no Kd found up to 30 µM.

Chain of Serine/threonine-protein kinase N2 (Q16513 whole entry): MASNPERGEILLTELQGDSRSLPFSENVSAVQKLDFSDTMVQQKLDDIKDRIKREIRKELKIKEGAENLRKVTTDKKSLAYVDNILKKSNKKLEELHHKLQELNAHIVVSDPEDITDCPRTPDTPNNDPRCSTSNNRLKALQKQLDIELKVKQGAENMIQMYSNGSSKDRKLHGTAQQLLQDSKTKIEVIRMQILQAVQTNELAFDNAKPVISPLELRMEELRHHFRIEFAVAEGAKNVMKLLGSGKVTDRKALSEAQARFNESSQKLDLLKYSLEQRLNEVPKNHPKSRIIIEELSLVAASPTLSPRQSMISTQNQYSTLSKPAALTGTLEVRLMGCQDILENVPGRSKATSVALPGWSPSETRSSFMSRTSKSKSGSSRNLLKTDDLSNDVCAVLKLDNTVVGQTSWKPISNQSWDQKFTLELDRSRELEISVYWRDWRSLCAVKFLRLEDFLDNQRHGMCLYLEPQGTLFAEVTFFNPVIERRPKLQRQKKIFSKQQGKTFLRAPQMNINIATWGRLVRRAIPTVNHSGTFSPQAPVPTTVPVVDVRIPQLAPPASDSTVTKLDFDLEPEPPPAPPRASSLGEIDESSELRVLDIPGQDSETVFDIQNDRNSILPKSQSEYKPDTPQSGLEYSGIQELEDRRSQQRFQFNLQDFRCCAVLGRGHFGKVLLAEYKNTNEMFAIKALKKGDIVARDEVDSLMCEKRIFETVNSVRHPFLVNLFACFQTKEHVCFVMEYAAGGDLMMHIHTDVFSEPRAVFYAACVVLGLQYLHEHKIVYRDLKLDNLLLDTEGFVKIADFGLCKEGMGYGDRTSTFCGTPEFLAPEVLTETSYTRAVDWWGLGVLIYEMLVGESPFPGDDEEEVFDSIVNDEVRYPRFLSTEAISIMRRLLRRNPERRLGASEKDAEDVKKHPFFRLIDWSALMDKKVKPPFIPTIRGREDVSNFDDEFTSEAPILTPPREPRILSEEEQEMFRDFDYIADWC

SMILES	Kd (Rab-like protein 3)	Kd [1]	Kd [2]	Kd [3]	Kd [4]
CCOc1cc2ncc(C#N)c(Nc3ccc(F)c(Cl)c3)c2cc1NC(=O)/C=C/CN(C)C [PELITINIB]	> 30 µM (inactive)	> 30 µM (inactive)	> 30 µM (inactive)	> 30 µM (inactive)	> 30 µM (inactive)
CCCCCCCCCCCCCCCCCCOP(=O)([O-])OC1CC[N+](C)(C)CC1 [PERIFOSINE]	> 30 µM (inactive)	> 30 µM (inactive)	> 30 µM (inactive)	> 30 µM (inactive)	> 30 µM (inactive)
CNC(=O)c1cc(Oc2ccc(NC(=O)Nc3cc(C(C)(C)C)nn3-c3ccc4ncccc4c3)c(F)c2)ccn1 [REBASTINIB]	> 30 µM (inactive)	> 30 µM (inactive)	> 30 µM (inactive)	> 30 µM (inactive)	> 30 µM (inactive)
CO[C@H]1C[C@@H]2CC[C@@H](C)[C@@](O)(O2)C(=O)C(=O)N2CCCC[C@H]2C(=O)O[C@H]([C@H](C)C[C@@H]2CC[C@@H](OP(C)(C)=O)[C@H](OC)C2)CC(=O)[C@H](C)/C=C(\C)[C@@H](O)[C@@H](OC)C(=O)[C@H](C)C[C@H](C)/C=C/C=C/C=C/1C [RIDAFOROLIMUS]	> 30 µM (inactive)	> 30 µM (inactive)	> 30 µM (inactive)	> 30 µM (inactive)	> 30 µM (inactive)
CN1CCN(CCOc2cc(OC3CCOCC3)c3c(Nc4c(Cl)ccc5c4OCO5)ncnc3c2)CC1 [SARACATINIB]	> 30 µM (inactive)	> 30 µM (inactive)	> 30 µM (inactive)	> 30 µM (inactive)	> 30 µM (inactive)
CO[C@H]1C[C@@H]2CC[C@@H](C)[C@@](O)(O2)C(=O)C(=O)N2CCCC[C@H]2C(=O)O[C@H]([C@H](C)C[C@@H]2CC[C@@H](OC(=O)C(C)(CO)CO)[C@H](OC)C2)CC(=O)[C@H](C)/C=C(\C)[C@@H](O)[C@@H](OC)C(=O)[C@H](C)C[C@H](C)/C=C/C=C/C=C/1C [TEMSIROLIMUS]	> 30 µM (inactive)	> 30 µM (inactive)	> 30 µM (inactive)	> 30 µM (inactive)	> 30 µM (inactive)

The remaining lines, values ahead:

Kd (Rab-like protein 3)	Kd [1]	Kd [2]	Kd [3]	Kd [4]	SMILES
> 30 µM (inactive)	> 30 µM (inactive)	> 30 µM (inactive)	> 30 µM (inactive)	> 30 µM (inactive)	Cc1nc(Nc2n[nH]c3c2CN(C(=O)N[C@H](CN(C)C)c2ccccc2)C3(C)C)c2sccc2n1 [PF-03758309]
> 30 µM (inactive)	> 30 µM (inactive)	> 30 µM (inactive)	> 30 µM (inactive)	> 30 µM (inactive)	Cc1cnc(NC(=O)Nc2cc(Br)c(C)cc2OC[C@@H]2CNCCO2)cn1 [RABUSERTIB]
> 30 µM (inactive)	> 30 µM (inactive)	> 30 µM (inactive)	> 30 µM (inactive)	> 30 µM (inactive)	N#CC1(c2ccc(NC(=O)c3cccnc3NCc3ccncc3)cc2)CCCC1 [RIVOCERANIB]
> 30 µM (inactive)	> 30 µM (inactive)	0.008 µM (active)	> 30 µM (inactive)	> 30 µM (inactive)	O=c1[nH]ccc2cc(OC3CCNCC3)ccc12 [SAR-407899 FREE BASE]
> 30 µM (inactive)	> 30 µM (inactive)	> 30 µM (inactive)	> 30 µM (inactive)	> 30 µM (inactive)	Cn1cc(-c2cnn3c(N)c(Br)c([C@@H]4CCCNC4)nc23)cn1 [SCH-900776]
> 30 µM (inactive)	> 30 µM (inactive)	> 30 µM (inactive)	> 30 µM (inactive)	> 30 µM (inactive)	CCS(=O)(=O)c1cccc(-c2cc(C(=O)NC3CCN(C)CC3)c(C)c3[nH]c4ncc(C)cc4c23)c1 [TAK-901]
> 30 µM (inactive)	> 30 µM (inactive)	> 30 µM (inactive)	> 30 µM (inactive)	> 30 µM (inactive)	COc1cc2c(Nc3ccc(Cl)c(Cl)c3F)ncnc2cc1OC[C@@H]1C[C@@H]2CN(C)C[C@@H]2C1 [TESEVATINIB]
> 30 µM (inactive)	> 30 µM (inactive)	> 30 µM (inactive)	> 30 µM (inactive)	> 30 µM (inactive)	O=C(Cc1ccc(-c2ccc(OCCN3CCOCC3)cc2)cn1)NCc1ccccc1 [TIRBANIBULIN]
